Results published in the supplement of paper PMC10307832.

What was measured:
Assay in all cases: relative viability (nuclei count vs DMSO), 5 days (fraction); higher = more cells survive
[1] = compound: CN(c1ncccc1CNc1nc(Nc2ccc3c(c2)CC(=O)N3)ncc1C(F)(F)F)S(C)(=O)=O + CC1(C)CCC(c2ccc(Cl)cc2)=C(CN2CCN(c3ccc(C(=O)NS(=O)(=O)c4ccc(N[C@H](CCN5CCOCC5)CSc5ccccc5)c(S(=O)(=O)C(F)(F)F)c4)cc3)CC2)C1 [Navitoclax] (partner 0.5 µM)
Summary of the method: (§1)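 A single step with final 0.05% Triton X-100, 1% formaldehyde and 1 ug/ml Hoechst fixed the cells and stained nuclei 5 days after treatment. Lung cancer cell lines in 1536-well plates had been treated by pin tool the day after seeding with one drug alone or a fixed anchor-drug dose plus five library-drug doses (not always all listed) in √10 steps, and nuclei were counted on 4× images. Relative viability is the ratio of nuclei in treated wells to nuclei in vehicle wells, taken as the median of duplicate plates.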

[2] = compound: CN(c1ncccc1CNc1nc(Nc2ccc3c(c2)CC(=O)N3)ncc1C(F)(F)F)S(C)(=O)=O + C[C@@H](Oc1cc(-c2cnn(C3CCNCC3)c2)cnc1N)c1c(Cl)ccc(F)c1Cl [Crizotinib] (partner 1 µM)
Summary of the method: as §1

[3] = compound: CN(c1ncccc1CNc1nc(Nc2ccc3c(c2)CC(=O)N3)ncc1C(F)(F)F)S(C)(=O)=O + Cc1nc(Nc2ncc(C(=O)Nc3c(C)cccc3Cl)s2)cc(N2CCN(CCO)CC2)n1 [Dasatinib] (partner 0.075 µM)
Summary of the method: as §1

[4] = compound: CN(c1ncccc1CNc1nc(Nc2ccc3c(c2)CC(=O)N3)ncc1C(F)(F)F)S(C)(=O)=O + O=C(CCCCCCC(=O)Nc1ccccc1)NO [Vorinostat] (partner 1 µM)
Summary of the method: as §1

Cell Line | relative viability ([1]; first compound 0.01 µM) | relative viability ([1]; first compound 0.03162 µM) | relative viability ([1]; first compound 0.1 µM) | relative viability ([1]; first compound 0.3162 µM) | relative viability ([1]; first compound 1 µM) | relative viability ([2]; first compound 0.01 µM) | relative viability ([2]; first compound 0.03162 µM) | relative viability ([2]; first compound 0.1 µM) | relative viability ([2]; first compound 0.3162 µM) | relative viability ([2]; first compound 1 µM) | relative viability ([3]; first compound 0.01 µM) | relative viability ([3]; first compound 0.03162 µM) | relative viability ([3]; first compound 0.1 µM) | relative viability ([3]; first compound 0.3162 µM) | relative viability ([3]; first compound 1 µM) | relative viability ([4]; first compound 0.01 µM) | relative viability ([4]; first compound 0.03162 µM) | relative viability ([4]; first compound 0.1 µM) | relative viability ([4]; first compound 0.3162 µM) | relative viability ([4]; first compound 1 µM)
RERF-LC-KJ | 0.966 | 1.05 | 0.862 | 0.956 | 0.693 | 0.841 | 0.823 | 0.85 | 0.779 | 0.86 | 0.767 | 0.809 | 0.708 | 0.723 | 0.743 | 0.643 | 0.78 | 0.692 | 0.728 | 0.603
NCI-H1915 | 0.803 | 0.849 | 0.786 | 0.765 | 0.728 | 0.908 | 0.915 | 0.877 | 0.834 | 0.885 | 0.296 | 0.269 | 0.292 | 0.295 | 0.309 | 0.535 | 0.534 | 0.593 | 0.536 | 0.519
NCI-H596 | 0.9 | 0.912 | 0.965 | 0.86 | 0.675 | 0.988 | 0.928 | 0.894 | 0.986 | 0.999 | 0.558 | 0.623 | 0.54 | 0.608 | 0.5 | 0.586 | 0.616 | 0.566 | 0.557 | 0.69
NCI-H2009 | 1.12 | 1.16 | 1.13 | 1.1 | 1.07 | 1.01 | 1.06 | 1.06 | 1.02 | 1.04 | 0.23 | 0.217 | 0.244 | 0.229 | 0.238 | 0.724 | 0.838 | 0.693 | 0.75 | 0.685
NCI-H2126 | 0.838 | 0.893 | 0.849 | 0.894 | 0.776 | 1.03 | 1.09 | 0.975 | 0.942 | 0.916 | 0.55 | 0.559 | 0.469 | 0.381 | 0.347 | 0.76 | 0.845 | 0.642 | 0.831 | 0.701
LXF-289 | 0.988 | 1.04 | 0.962 | 0.929 | 0.911 | 0.851 | 0.875 | 0.824 | 0.788 | 0.773 | 0.187 | 0.181 | 0.129 | 0.12 | 0.121 | 0.887 | 0.787 | 0.782 | 0.697 | 0.792
PC-14 | 1.02 | 1.16 | 1.03 | 1.01 | 1.04 | 0.874 | 0.858 | 1.04 | 0.872 | 0.765 | 0.211 | 0.191 | 0.14 | 0.211 | 0.158 | 0.75 | 0.764 | 0.692 | 0.811 | 0.653
HOP-62 | 1.18 | 1.07 | 0.94 | 1.04 | 0.934 | 0.926 | 1.04 | 0.962 | 0.809 | 1.04 | 0.616 | 0.512 | 0.5 | 0.301 | 0.301 | 0.759 | 0.769 | 0.574 | 0.732 | 0.596
